Reference: patent publication US20240116985A1, “STAPLED PEPTIDES AND METHODS THEREOF” (priority 2020, published 2024)
pIC50: −log10 of the molar value. In brackets after ≈: the same amount, converted by molar mass. Like-named read-outs stand apart in the source and are kept apart here.

Tests used:
[1] = target: T1, full-length beta-Catenin (Uniprot ID P35222) (Homo sapiens, UniProt P35222); experiment: Fluorescence polarization IC50 (beta-catenin / 5FAM-TCF4 10-53 competition); assay type: binding
T1 construct: 10 nM full-length beta-Catenin (Uniprot ID P35222)
T1 sequence (P35222 1-781): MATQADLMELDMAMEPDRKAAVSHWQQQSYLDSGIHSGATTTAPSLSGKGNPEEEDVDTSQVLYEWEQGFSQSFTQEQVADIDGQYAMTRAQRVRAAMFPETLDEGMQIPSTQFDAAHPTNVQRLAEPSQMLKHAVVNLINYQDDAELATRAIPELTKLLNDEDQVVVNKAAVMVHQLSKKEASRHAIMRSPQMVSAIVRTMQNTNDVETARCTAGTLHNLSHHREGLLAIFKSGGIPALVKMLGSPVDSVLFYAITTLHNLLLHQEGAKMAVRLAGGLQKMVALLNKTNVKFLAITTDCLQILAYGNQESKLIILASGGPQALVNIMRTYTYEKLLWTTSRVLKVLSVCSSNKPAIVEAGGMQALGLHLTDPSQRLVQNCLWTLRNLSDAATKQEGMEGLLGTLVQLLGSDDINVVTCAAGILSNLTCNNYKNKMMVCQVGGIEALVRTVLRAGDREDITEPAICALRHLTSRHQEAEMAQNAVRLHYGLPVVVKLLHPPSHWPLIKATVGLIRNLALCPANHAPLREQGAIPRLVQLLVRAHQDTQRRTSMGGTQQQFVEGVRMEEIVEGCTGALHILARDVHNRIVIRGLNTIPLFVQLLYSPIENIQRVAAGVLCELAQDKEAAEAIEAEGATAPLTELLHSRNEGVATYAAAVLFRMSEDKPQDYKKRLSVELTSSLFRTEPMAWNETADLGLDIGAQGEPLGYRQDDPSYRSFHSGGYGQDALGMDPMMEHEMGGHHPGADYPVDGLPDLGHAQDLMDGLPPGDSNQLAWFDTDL

[2] = CHI Log D procedure; assay type: physicochemical
[3] = Solubility in PBS; assay type: physicochemical
Procedure, shortened: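 HPLC quantitation of peptide remaining in the PBS supernatant after ultracentrifugation, referenced to a 50 μM solution in DMSO.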

[4] = fluorescence polarization, read-out: beta-Catenin FP IC50
[5] = fluorescence polarization, beta-catenin, read-out: FP EC50
[6] = Table E2-1, read-out: beta-Catenin FP IC50

Row | Compound | pIC50 [1, 4] | pIC50 ([1]; read-out: FP EC50) | CHI Log D ([2]; pH 7.4) | Solubility [3] | pIC50 [1, 5] | chromatographic logD ([2]; pH 7.4, CHI Log D) | Solubility ([3]; Solubility (uM)) | other results
1 | CC(=O)N1CCC[C@]12CC=CCCCC1(CCCC=CCCCCCC[C@@](C)(C(=O)N[C@@H](Cc3ccccc3)C(=O)N[C@@H](Cc3csc4ccccc34)C(=O)N[C@@H](Cc3c[nH]cn3)C(N)=O)NC(=O)[C@H]([C@@H](C)O)NC(=O)[C@H](Cc3ccccc3)NC(=O)[C@H](C)NC(=O)[C@H](C)NC(=O)[C@H](CCC(=O)O)NC(=O)[C@H](CC(=O)O)NC1=O)NC(=O)[C@H](CC(C)C)NC(=O)[C@H](CC(=O)O)NC2=O (stereo partly drawn) [I-617, Ac-PL3-Asp-Leu-B5-Asp-Glu-Ala-Ala-Phe-Thr-S8-Phe-BztA-His-NH2] | 6.60 | 6.60 | 2.549 | 10 µM (≈ 18.7 µg/mL) |  |  |  | 
2 | CC(=O)N1CCC[C@]12CC=CCCCC1(CCCC=CCCCOC(=O)N3CC[C@@](C(=O)N[C@@H](Cc4ccsc4)C(=O)N[C@@H](Cc4csc5ccccc45)C(=O)N[C@@H](CCC(N)=O)C(N)=O)(C3)NC(=O)[C@H](CC(N)=O)NC(=O)[C@H](Cc3ccccc3)NC(=O)[C@H](C)NC(=O)[C@H](C)NC(=O)[C@H](Cc3cccc(C(=O)O)c3)NC(=O)[C@H](CC(=O)O)NC1=O)NC(=O)[C@H](CC(C)(C)C)NC(=O)[C@H](CC(=O)O)NC2=O (stereo partly drawn) [I-977, Ac-PL3-Asp-Npg-B5-Asp-3COOHF-Ala-Ala-Phe-Asn-PyrS2-3Thi-BztA-Gln-NH2] |  |  | 1.87 | 46 µM (≈ 91.7 µg/mL) | 6.44 |  |  | pIC50 ([1]; read-out: beta-Catenin FP IC50): 6.06
3 | CC(=O)N1CCC[C@]12CC=CCCCC1(CCCC=CCCCCCC[C@@](C)(C(=O)N[C@@H](Cc3ccccc3)C(=O)N[C@@H](Cc3csc4ccccc34)C(=O)N[C@@H](CCC(N)=O)C(=O)NC(C)(C)C(N)=O)NC(=O)[C@H](CC(N)=O)NC(=O)[C@H](Cc3ccccc3)NC(=O)[C@H](C)NC(=O)[C@H](C)NC(=O)[C@H](CCC(=O)O)NC(=O)[C@H](CC(=O)O)NC1=O)NC(=O)[C@H](CC(C)C)NC(=O)[C@H](CC(=O)O)NC2=O (stereo partly drawn) [I-737, Ac-PL3-Asp-Leu-B5-Asp-Glu-Ala-Ala-Phe-Asn-S8-Phe-BztA-Gln-Aib-NH2] | 6.45 |  |  |  |  | 2.73 | 44 µM (≈ 86 µg/mL) | 
4 | CC(=O)N1CCC[C@]12CC=CCCCC1(CCCC=CCCCCCC[C@@](C)(C(=O)N[C@@H](Cc3ccccc3)C(=O)N[C@@H](Cc3c[nH]c4ccccc34)C(=O)N[C@@H](CCC(N)=O)C(N)=O)NC(=O)[C@H](C(C)C)NC(=O)[C@H](Cc3ccccc3)NC(=O)[C@H](C)NC(=O)[C@H](C)NC(=O)[C@H](Cc3c[nH]cn3)NC(=O)[C@H](CC(=O)O)NC1=O)NC(=O)[C@H](C)NC(=O)[C@H](CC(=O)O)NC2=O (stereo partly drawn) [I-305, Ac-PL3-Asp-Ala-B5-Asp-His-Ala-Ala-Phe-Val-S8-Phe-Trp-Gln-NH2] |  |  | 2.348 | 10 µM (≈ 18 µg/mL) | 5.40 |  |  | pIC50 [1, 6]: 5.40
5 | CC[C@H](C)[C@@H]1NC(=O)[C@H](CC(=O)O)NC(=O)[C@]2(CC=CCCCC3(CCCC=CCCCCCC[C@@](C)(C(=O)N[C@@H](Cc4ccsc4)C(=O)N[C@@H](Cc4csc5ccccc45)C(=O)N[C@@H](Cc4c[nH]cn4)C(N)=O)NC(=O)[C@H](CC(N)=O)NC(=O)[C@H](Cc4ccccc4)NC(=O)[C@H](C)NC(=O)[C@H](C)NC(=O)[C@H](CC(=O)O)NC(=O)[C@H](CC(=O)O)NC3=O)NC1=O)CCCN2C(C)=O (stereo partly drawn) [I-555, Ac-PL3-Asp-Ile-B5-Asp-Asp-Ala-Ala-Phe-Asn-S8-3Thi-BztA-His-NH2] | 7.39 | 7.39 | 2.374 | 41 µM (≈ 76.7 µg/mL) |  |  |  | 
6 | CC(=O)N1CCC[C@]12CC=CCCCC1(CCCC=CCCCOC(=O)N3CC[C@@](C(=O)N[C@@H](Cc4ccsc4)C(=O)N[C@@H](Cc4csc5ccccc45)C(=O)N[C@@H](C(N)=O)[C@H](C)O)(C3)NC(=O)[C@H](CC(N)=O)NC(=O)[C@H](Cc3ccccc3)NC(=O)[C@H](C)NC(=O)[C@H](C)NC(=O)[C@H](CN(CC(=O)O)CC(F)(F)F)NC(=O)[C@H](CC(=O)O)NC1=O)NC(=O)[C@H](CC(C)(C)C)NC(=O)[C@H](CC(=O)O)NC2=O (stereo partly drawn) [I-948, Ac-PL3-Asp-Npg-B5-Asp-TfeGA-Ala-Ala-Phe-Asn-PyrS2-3Thi-BztA-dThr-NH2] |  |  | 2.013 | 47 µM (≈ 94.1 µg/mL) | 5.61 |  |  | pIC50 ([1]; read-out: beta-Catenin FP IC50): 5.61
7 | CC[C@H](C)[C@@H]1NC(=O)[C@H](CC(=O)O)NC(=O)[C@]2(CC=CCCCC3(CCCC=CCCCCCC[C@@](C)(C(=O)N[C@@H](Cc4ccccc4)C(=O)N[C@@H](Cc4csc5ccccc45)C(=O)N[C@@H](CCC(N)=O)C(N)=O)NC(=O)[C@H](CCC(N)=O)NC(=O)[C@H](Cc4ccccc4)NC(=O)[C@H](C)NC(=O)[C@H](C)NC(=O)[C@H](CCCNC(=N)N)NC(=O)[C@H](CC(=O)O)NC3=O)NC1=O)CCCN2C(C)=O (stereo partly drawn) [I-613, Ac-PL3-Asp-Ile-B5-Asp-Arg-Ala-Ala-Phe-Gln-S8-Phe-BztA-Gln-NH2] | 5.79 | 5.79 | 2.781 | 10 µM (≈ 19.1 µg/mL) |  |  |  | 
8 | CC[C@H](C)[C@@H]1NC(=O)[C@H](CC(=O)O)NC(=O)[C@]2(CC=CCCCC3(CCCC=CCCCCCC[C@@](C)(C(=O)N[C@@H](Cc4ccccc4)C(=O)N[C@@H](Cc4csc5ccccc45)C(=O)N[C@@H](CCC(N)=O)C(N)=O)NC(=O)[C@H](CCC(N)=O)NC(=O)[C@H](Cc4cccc(OC)c4)NC(=O)[C@H](C)NC(=O)[C@H](C)NC(=O)[C@H](CCC(=O)O)NC(=O)[C@H](CC(=O)O)NC3=O)NC1=O)CCCN2C(C)=O (stereo partly drawn) [I-724, Ac-PL3-Asp-Ile-B5-Asp-Glu-Ala-Ala-3OMeF-Gln-S8-Phe-BztA-Gln-NH2] | 6.94 |  |  |  |  | 2.42 | 34 µM (≈ 65 µg/mL) | 
9 | CC[C@H](C)[C@@H]1NC(=O)[C@H](CC(=O)O)NC(=O)[C@]2(CC=CCCCC3(CCCC=CCCCCCC[C@@](C)(C(=O)N[C@@H](Cc4ccccc4)C(=O)N[C@@H](Cc4csc5ccccc45)C(N)=O)NC(=O)[C@H](CCC(N)=O)NC(=O)[C@H](Cc4ccccc4)NC(=O)[C@H](C)NC(=O)[C@H](C)NC(=O)[C@H](CCC(=O)O)NC(=O)[C@H](CC(=O)O)NC3=O)NC1=O)CCCN2C(C)=O (stereo partly drawn) [I-408, Ac-PL3-Asp-Ile-B5-Asp-Glu-Ala-Ala-Phe-Gln-S8-Phe-BztA-NH2] | 6.92 | 6.92 | 2.674 | 50 µM (≈ 87.8 µg/mL) |  |  |  | 
10 | CC(=O)N1CCC[C@]12CC=CCCCC1(CCCC=CCCCCCC[C@@](C)(C(=O)N[C@@H](Cc3ccc(O)cc3)C(=O)N[C@@H](Cc3csc4ccccc34)C(=O)N[C@@H](CCC(N)=O)C(N)=O)NC(=O)[C@H](C(C)C)NC(=O)[C@H](Cc3ccccc3)NC(=O)[C@H](C)NC(=O)[C@H](C)NC(=O)[C@H](CC(=O)O)NC(=O)[C@H](CC(=O)O)NC1=O)NC(=O)[C@H](C)NC(=O)[C@H](CC(=O)O)NC2=O (stereo partly drawn) [I-341, Ac-PL3-Asp-Ala-B5-Asp-Asp-Ala-Ala-Phe-Val-S8-Tyr-BztA-Gln-NH2] |  |  |  |  |  | 1.73 | 38 µM (≈ 68.9 µg/mL) | pIC50 [1, 6]: 5.70
11 | CCN(CC(=O)O)C[C@@H]1NC(=O)[C@H](CC(=O)O)NC(=O)C2(CCCC=CCCCOC(=O)N3CC[C@@](C(=O)N[C@@H](Cc4ccsc4)C(=O)N[C@@H](Cc4csc5ccccc45)C(=O)N[C@@H](CCC(N)=O)C(N)=O)(C3)NC(=O)[C@H](CO)NC(=O)[C@H](Cc3ccccc3)NC(=O)[C@H](C)NC(=O)[C@H](C)NC1=O)CCCC=CC[C@]1(CCCN1C(C)=O)C(=O)N[C@@H](CC(=O)O)C(=O)N[C@@H](CC(C)(C)C)C(=O)N2 (stereo partly drawn) [I-966, Ac-PL3-Asp-Npg-B5-Asp-EtGA-Ala-Ala-Phe-Ser-PyrS2-3Thi-BztA-Gln-NH2] |  |  | 1.791 | 43 µM (≈ 83.8 µg/mL) | 5.69 |  |  | pIC50 ([1]; read-out: beta-Catenin FP IC50): 5.69
12 | CC[C@H](C)[C@@H]1NC(=O)[C@H](CC(=O)O)NC(=O)[C@]2(CC=CCCCC3(CCCC=CCCCCCC[C@@](C)(C(=O)N[C@@H](Cc4ccccc4)C(=O)N[C@@H](Cc4csc5ccccc45)C(=O)N[C@@H](Cc4c[nH]cn4)C(N)=O)NC(=O)[C@H](CC(N)=O)NC(=O)[C@H](Cc4ccccc4)NC(=O)[C@H](C)NC(=O)[C@H](C)NC(=O)[C@H](CCC(=O)O)NC(=O)[C@H](CC(=O)O)NC3=O)NC1=O)CCCN2C(C)=O (stereo partly drawn) [I-472, Ac-PL3-Asp-Ile-B5-Asp-Glu-Ala-Ala-Phe-Asn-S8-Phe-BztA-His-NH2] | 7.21 |  |  |  |  | 2.42 | 36 µM (≈ 67.6 µg/mL) | 
13 | C[C@@H]1NC(=O)[C@H](C)NC(=O)[C@H](CC(=O)O)NC(=O)[C@H](CC(=O)O)NC(=O)C2(CCCC=CCCCOC(=O)N3CC[C@@](C(=O)N[C@@H](Cc4ccccc4Cl)C(=O)N[C@@H](Cc4csc5ccccc45)C(=O)N[C@@H](C(N)=O)[C@H](C)O)(C3)NC(=O)[C@H]([C@@H](C)O)NC(=O)[C@H](Cc3ccccc3)NC1=O)CCCC=CC[C@]1(CCCN1C(=O)CN=[N+]=[N-])C(=O)N[C@@H](CC(=O)O)C(=O)N[C@@H](CC(C)(C)C)C(=O)N2 (stereo partly drawn) [I-1060, AzAc-PL3-Asp-Npg-B5-Asp-Asp-Ala-Ala-Phe-Thr-PyrS2-2C1F-BztA-dThr-NH2] |  |  |  | 10 µM (≈ 19.5 µg/mL) |  |  |  | IC50 ([1]; FP EC50 (nM), fluorescence polarization, beta-catenin): 38 nM; chromatographic logD ([2]; pH 7.4): 2.6
